Measured values as given in ChEMBL document CHEMBL3044797 (Crop Prot, 2008).
Values after ≈ are worked out from the molar mass of the structure shown.

Legend:
Format in all cases: functional, organism-based
[1] = tested on: Dothiorella gregaria; experiment: Fungicidal activity against Dothiorella gregaria assessed as inhibition of mycelial growth
[2] = tested on: Blumeria graminis; experiment: Fungicidal activity against Blumeria graminis infested wheat plant in greenhouse assessed as reduction in powdery mildew formation measured after 10 days; conditions: 240 h
[3] = tested on: Pseudoperonospora cubensis; experiment: Fungicidal activity against Pseudoperonospora cubensis zoosporangia isolate obtained from downy mildew diseased cucumber plant assessed as reduction in mildew development measured after 7 to 10 days
[4] = tested on: Fusarium graminearum; experiment: Fungicidal activity against Wind-type carbendazim-sensitive Fusarium graminearum isolate
[5] = tested on: Fusarium graminearum; experiment: Fungicidal activity against compound-sensitive Fusarium graminearum isolate
[6] = tested on: Sclerotinia sclerotiorum; experiment: Fungicidal activity against Sclerotinia sclerotiorum assessed as inhibition of mycelial growth
[7] = tested on: Botrytis cinerea; experiment: Fungicidal activity against Botryotinia fuckeliana assessed as inhibition of mycelial growth
[8] = tested on: Pyricularia grisea; experiment: Fungicidal activity against Magnaporthe grisea assessed as inhibition of mycelial growth
[9] = tested on: Colletotrichum truncatum; experiment: Fungicidal activity against Colletotrichum capsici assessed as inhibition of mycelial growth
[10] = tested on: Phytophthora capsici; experiment: Fungicidal activity against Phytophthora capsici assessed as inhibition of mycelial growth
[11] = tested on: Alternaria solani; experiment: Fungicidal activity against Alternaria solani assessed as inhibition of mycelial growth
[12] = tested on: Fusarium verticillioides; experiment: Fungicidal activity against Fusarium verticillioides assessed as inhibition of mycelial growth
[13] = tested on: Fusarium oxysporum; experiment: Fungicidal activity against Fusarium oxysporum assessed as inhibition of mycelial growth

For `CCOC(=O)/C(C#N)=C(/N)c1ccccc1`, which EC50 [1] is on record?
Its EC50 is 39.7 µg/mL (≈ 184 µM).

And the EC50 [2]?
Its EC50 is > 1000 µg/mL.

What about the EC50 [3] of the same compound?
The EC50 was 12.7 µg/mL (≈ 58.9 µM).

And the EC50 [4]?
Its EC50 is 0.108 µg/mL (≈ 0.499 µM).

And the EC50 [5]?
Its EC50 is 0.141 µg/mL (≈ 0.652 µM).

What about the EC50 [6] of the same compound?
The EC50 was 72.1 µg/mL (≈ 333 µM).

And the EC50 [7]?
Its EC50 is 72.2 µg/mL (≈ 334 µM).

And the EC50 [8]?
Its EC50 is 77.1 µg/mL (≈ 356 µM).

And the EC50 [9]?
The EC50 was 28.2 µg/mL (≈ 130 µM).

What about the EC50 [10] of the same compound?
The EC50 was 111 µg/mL (≈ 515 µM).

What about the EC50 [11] of the same compound?
Its EC50 is 133 µg/mL (≈ 616 µM).

What about the EC50 [12] of the same compound?
The EC50 was 0.459 µg/mL (≈ 2.12 µM).

What about the EC50 [13] of the same compound?
The EC50 was 3.56 µg/mL (≈ 16.5 µM).
